Results taken from patent US8309552B2, “Immunomodulating heterocyclic compounds” (Medigene AG, priority 2003, dated 2012).

biological target: T1, CD80-CD28 interaction (Homo sapiens, UniProt P33681); experiment: Homogenous Time Resolved Fluorescence (HTRF) assay, cell free; assay type: binding; settings: cell-free HTRF, concentration series 100 μM-1.7 nM, 4 hours at room temperature; read-out: Activity (EC50 in the HTRF assay)
T1 sequence (P33681 35-242 limits assumed): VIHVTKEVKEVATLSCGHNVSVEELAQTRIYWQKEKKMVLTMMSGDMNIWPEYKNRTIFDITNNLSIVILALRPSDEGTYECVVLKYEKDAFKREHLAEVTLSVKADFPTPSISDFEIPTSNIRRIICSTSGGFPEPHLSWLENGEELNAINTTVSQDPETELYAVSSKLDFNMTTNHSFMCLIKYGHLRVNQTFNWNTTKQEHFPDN
In short: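 Europium and APC labels were linked through antibodies to CD28 and CD80 fusion proteins. Compounds were tested at 100 μM-1.7 nM for 4 h at room temperature in 50 mM Tris-HCl, 150 mM NaCl pH7.8, 0.1% BSA. Emission read at 665 and 615 nm (excitation 340 nm); non-specific signal measured with C215 Fab in place of CD80; EC50 reported in bands.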

| Structure (SMILES) | EC50 [µM] |
| --- | --- |
| CC1CC(C)(C)C(CNC(=O)c2ccc(-n3[nH]c4c(nnc5c(F)cccc54)c3=O)cc2)C1N (stereo not shown) [Example 439] | < 1 |
| O=C(NC1CCNCC1)c1ccc(-n2[nH]c3c(nnc4c(F)cccc43)c2=O)cc1 [Example 440] | < 1 |
| CC(N)C(C)CNC(=O)c1ccc(-n2[nH]c3c(nnc4c(F)cccc43)c2=O)cc1 (stereo not shown) [Example 443] | < 1 |
| O=C(NCC1CCNCC1)c1ccc(-n2[nH]c3c(nnc4c(F)cccc43)c2=O)cc1 [Example 444] | < 1 |
| NCCCNC(=O)c1ccc(-n2[nH]c3c(nnc4c(F)cccc43)c2=O)cc1 [Example 445] | < 1 |
| CN(C)CCCNC(=O)c1ccc(-n2[nH]c3c(nnc4ccc(Cl)cc43)c2=O)cc1 [Example 446] | < 1 |
| CN1C(C)(C)CC(NC(=O)c2ccc(-n3[nH]c4c(nnc5ccc(Cl)cc54)c3=O)cc2)CC1(C)C [Example 447] | < 1 |
| O=C(NCCCCN1CCCC1)c1ccc(-n2[nH]c3c(nnc4ccc(Cl)cc43)c2=O)cc1 [Example 449] | < 1 |
| CCNC(=O)c1ccc(-n2[nH]c3c(nnc4c(F)cccc43)c2=O)cc1 [Example 450] | < 1 |
| O=C(NCCCN1CCCCCC1)c1ccc(-n2[nH]c3c(nnc4c(F)cccc43)c2=O)cc1 [Example 451] | < 1 |
| CCCN(CC)C(=O)c1ccc(-n2[nH]c3c(nnc4c(F)cccc43)c2=O)cc1 [Example 452] | 1 to 10 |
| CC1CCCCN1CCCCNC(=O)c1ccc(-n2[nH]c3c(nnc4c(F)cccc43)c2=O)cc1 (stereo not shown) [Example 454] | < 1 |
| CC(C)(C)CNC(=O)c1ccc(-n2[nH]c3c(nnc4c(F)cccc43)c2=O)cc1 [Example 455] | < 1 |
| O=C(NC1CCN(CC2CCCCC2)CC1)c1ccc(-n2[nH]c3c(nnc4c(F)cccc43)c2=O)cc1 [Example 456] | < 1 |
| O=C(NC1CCN(CCCCc2ccccc2)CC1)c1ccc(-n2[nH]c3c(nnc4c(F)cccc43)c2=O)cc1 [Example 457] | < 1 |
| C=CCN(CC=C)CCCCNC(=O)c1ccc(-n2[nH]c3c(nnc4c(F)cccc43)c2=O)cc1 [Example 459] | < 1 |
| CC1CN(CCCCNC(=O)c2ccc(-n3[nH]c4c(nnc5c(F)cccc54)c3=O)cc2)CC(C)O1 (stereo not shown) [Example 460] | < 1 |
| CC1CN(C(=O)c2ccc(-n3[nH]c4c(nnc5c(F)cccc54)c3=O)cc2)CC(C)O1 (stereo not shown) [Example 461] | < 1 |
| O=C(NCCCCN1CCCCCC1)c1ccc(-n2[nH]c3c(nnc4c(F)cccc43)c2=O)cc1 [Example 462] | < 1 |
| O=C(c1ccc(-n2[nH]c3c(nnc4c(F)cccc43)c2=O)cc1)N1CCCCCC1 [Example 463] | < 1 |
| CC1CCN(CCCCNC(=O)c2ccc(-n3[nH]c4c(nnc5c(F)cccc54)c3=O)cc2)CC1 [Example 464] | < 1 |
| CC1CCN(C(=O)c2ccc(-n3[nH]c4c(nnc5c(F)cccc54)c3=O)cc2)CC1 [Example 465] | < 1 |

| Structure (SMILES) | EC50 [µM] |
| --- | --- |
| CC1(C)CCCC(C)(C)N1CCCCNC(=O)c1ccc(-n2[nH]c3c(nnc4c(F)cccc43)c2=O)cc1 [Example 466] | < 1 |
| O=C(NCC(F)(F)C(F)F)c1ccc(-n2[nH]c3c(nnc4c(F)cccc43)c2=O)cc1 [Example 467] | < 1 |
| CCCN(CCCCNC(=O)c1ccc(-n2[nH]c3c(nnc4c(F)cccc43)c2=O)cc1)CC1CC1 [Example 468] | < 1 |
| C=CCN(CCCCNC(=O)c1ccc(-n2[nH]c3c(nnc4c(F)cccc43)c2=O)cc1)C1CCCC1 [Example 469] | < 1 |
| O=C(NCCCCN1CCC(C(F)(F)F)CC1)c1ccc(-n2[nH]c3c(nnc4c(F)cccc43)c2=O)cc1 [Example 470] | < 1 |
| O=C(NC1CCN(CCCCF)CC1)c1ccc(-n2[nH]c3c(nnc4c(F)cccc43)c2=O)cc1 [Example 471] | < 1 |
| C=CCN(CC=C)C(=O)c1ccc(-n2[nH]c3c(nnc4c(F)cccc43)c2=O)cc1 [Example 474] | 1 to 10 |
| CC(C)CN(CCCCNC(=O)c1ccc(-n2[nH]c3c(nnc4c(F)cccc43)c2=O)cc1)CC(C)C [Example 476] | < 1 |
| CC1CC(C)CN(CCCCNC(=O)c2ccc(-n3[nH]c4c(nnc5c(F)cccc54)c3=O)cc2)C1 (stereo not shown) [Example 477] | < 1 |
| CC(C)(C)NCCCCNC(=O)c1ccc(-n2[nH]c3c(nnc4c(F)cccc43)c2=O)cc1 [Example 479] | < 1 |
| CCC(C)(C)NCCCCNC(=O)c1ccc(-n2[nH]c3c(nnc4c(F)cccc43)c2=O)cc1 [Example 480] | < 1 |
| CC(C)(C)CNCCCCNC(=O)c1ccc(-n2[nH]c3c(nnc4c(F)cccc43)c2=O)cc1 [Example 481] | < 1 |
| C=CCCN1CCC(NC(=O)c2ccc(-n3[nH]c4c(nnc5c(F)cccc54)c3=O)cc2)CC1 [Example 483] | < 1 |
| O=C(NC1CCN(CCC(F)=C(F)F)CC1)c1ccc(-n2[nH]c3c(nnc4c(F)cccc43)c2=O)cc1 [Example 484] | < 1 |
| O=C(NCCCC(F)F)c1ccc(-n2[nH]c3c(nnc4c(F)cccc43)c2=O)cc1 [Example 485] | < 1 |
| N#CCCNC(=O)c1ccc(-n2[nH]c3c(nnc4c(F)cccc43)c2=O)cc1 [Example 486] | < 1 |
| O=C(NC(CO)(CO)CO)c1ccc(-n2[nH]c3c(nnc4c(F)cccc43)c2=O)cc1 [Example 487] | < 1 |
| O=C(NC1CCNC1)c1ccc(-n2[nH]c3c(nnc4c(F)cccc43)c2=O)cc1 (stereo not shown) [Example 488] | < 1 |
| CN1CCCN(C(=O)c2ccc(-n3[nH]c4c(nnc5c(F)cccc54)c3=O)cc2)CC1 [Example 489] | < 1 |
| O=C(c1ccc(-n2[nH]c3c(nnc4c(F)cccc43)c2=O)cc1)N1CCCNCC1 [Example 490] | < 1 |
| NC(=O)CNC(=O)c1ccc(-n2[nH]c3c(nnc4c(F)cccc43)c2=O)cc1 [Example 491] | < 1 |
| O=C(NC1CCC(=C(F)F)CC1)c1ccc(-n2[nH]c3c(nnc4c(F)cccc43)c2=O)cc1 (stereo not shown) [Example 492] | < 1 |

| Structure (SMILES) | EC50 [µM] |
| --- | --- |
| CC(F)CCNC(=O)c1ccc(-n2[nH]c3c(nnc4c(F)cccc43)c2=O)cc1 (stereo not shown) [Example 493] | < 1 |
| CC(C)C(C)(C#N)NC(=O)c1ccc(-n2[nH]c3c(nnc4c(F)cccc43)c2=O)cc1 (stereo not shown) [Example 498] | < 1 |
| NC1CCCC(NC(=O)c2ccc(-n3[nH]c4c(nnc5c(F)cccc54)c3=O)cc2)C1 (stereo not shown) [Example 499] | < 1 |
| O=C(NCC(F)F)c1ccc(-n2[nH]c3c(nnc4c(F)ccc(F)c43)c2=O)cc1 [Example 500] | < 1 |
| O=C(N[C@H]1CC[C@H](O)CC1)c1ccc(-n2[nH]c3c(nnc4c(F)cccc43)c2=O)cc1 [Example 501] | < 1 |
| CC(O)CCNC(=O)c1ccc(-n2[nH]c3c(nnc4c(F)cccc43)c2=O)cc1 (stereo not shown) [Example 502] | < 1 |
| O=C(NCC1CCCCCC1O)c1ccc(-n2[nH]c3c(nnc4c(F)cccc43)c2=O)cc1 (stereo not shown) [Example 503] | 1 to 10 |
| O=C(NCC1CCCCC1O)c1ccc(-n2[nH]c3c(nnc4c(F)cccc43)c2=O)cc1 (stereo not shown) [Example 504] | 1 to 10 |
| O=C(NCCNCCO)c1ccc(-n2[nH]c3c(nnc4c(F)cccc43)c2=O)cc1 [Example 505] | < 1 |
| O=C(NCC1CCCCCCC1O)c1ccc(-n2[nH]c3c(nnc4c(F)cccc43)c2=O)cc1 (stereo not shown) [Example 506] | 1 to 10 |
| O=C(NC(CO)CO)c1ccc(-n2[nH]c3c(nnc4c(F)cccc43)c2=O)cc1 [Example 507] | < 1 |
| CC(CO)NC(=O)c1ccc(-n2[nH]c3c(nnc4c(F)cccc43)c2=O)cc1 (stereo not shown) [Example 508] | < 1 |
| CCC(CO)NC(=O)c1ccc(-n2[nH]c3c(nnc4c(F)cccc43)c2=O)cc1 (stereo not shown) [Example 509] | < 1 |
| O=C(N[C@H]1c2ccccc2C[C@H]1O)c1ccc(-n2[nH]c3c(nnc4c(F)cccc43)c2=O)cc1 [Example 510] | 1 to 10 |
| O=C(NC(CO)Cc1ccc(O)cc1)c1ccc(-n2[nH]c3c(nnc4c(F)cccc43)c2=O)cc1 (stereo not shown) [Example 511] | 1 to 10 |
| O=C(N[C@@H](CO)[C@@H](O)c1ccccc1)c1ccc(-n2[nH]c3c(nnc4c(F)cccc43)c2=O)cc1 [Example 513] | 1 to 10 |
| O=C(NC(CO)Cc1ccccc1)c1ccc(-n2[nH]c3c(nnc4c(F)cccc43)c2=O)cc1 (stereo not shown) [Example 514] | < 1 |
| O=C(NC(CO)Cc1c[nH]c2ccccc12)c1ccc(-n2[nH]c3c(nnc4c(F)cccc43)c2=O)cc1 (stereo not shown) [Example 515] | 1 to 10 |
| CC(C)(CO)NC(=O)c1ccc(-n2[nH]c3c(nnc4c(F)cccc43)c2=O)cc1 [Example 516] | > 10 |
| CC(CO)(CO)NC(=O)c1ccc(-n2[nH]c3c(nnc4c(F)cccc43)c2=O)cc1 [Example 517] | < 1 |
